These results are taken from PubChem BioAssay (NCI).

Test in all cases: growth of human tumour cells (NCI), 48 h
Experiment [1] deals with NCI-H23 lung.
Experiment [2] has as its system RXF 393 renal.
For experiment [3], the system named is A549 NSCLC.
For experiment [4], the system named is BT-549 breast.
Experiment [5] has as its system UACC-257 melanoma.
For experiment [6], the system named is CCRF-CEM leukemia.
The subject of experiment [7] is NCI-H226 lung.
Experiment [8] has as its system HCT-15 colon.
In experiment [9] the test system is M14 melanoma.
Experiment [10] concerns IGROV1 ovarian.
Experiment [11] deals with UACC-62 melanoma.
Experiment [12] concerns MCF7 breast.
Experiment [13] concerns K-562 leukemia.
The subject of experiment [14] is ACHN renal.
Experiment [15] concerns 786-0 renal.
The test system of experiment [16] is CAKI-1 renal.
Experiment [17] concerns UO-31 renal.
For experiment [18], the system named is OVCAR-4 ovarian.

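96-well plates; 48 h exposure; 5 concentrations. Endpoints by linear interpolation between flanking doses. Not reached: highest tested concentration assigned. TGI denotes the concentration required for complete inhibition of growth.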

As for `O=c1[nH]c(C23CC4CC(CC(C4)C2)C3)cc2c1c(=O)oc1ccccc12`, the TGI in [1] was 23 µM; in experiment [2] it was 7.71 µM; in [3] it was 9.71 µM; in experiment [4] it was 38.2 µM; in experiment [5] it was greater than 76.2 µM; in experiment [6], 42.7 µM. The TGI was 5.75 µM in experiment [7]; 81.3 µM in [8]; 39.6 µM in experiment [9]; 13 µM in [10]; greater than 49.8 µM in experiment [11]; greater than 41 µM in experiment [12]. Moreover, the TGI is greater than 35.8 µM in [13]; 10.6 µM in [14]; 3.1 µM in experiment [15]; 7.03 µM in experiment [16]; 4.23 µM in experiment [17]; 14 µM in [18].
Take `COc1cc(/C=C(\C#N)c2nc3ccccc3o2)ccc1O`: the TGI is 70 µM in experiment [1]; greater than 100 µM in experiment [2]; 43.4 µM in experiment [3]; 34.5 µM in experiment [4]; greater than 100 µM in experiment [5]; greater than 100 µM in experiment [6]. Further, the TGI was 49 µM in experiment [7]; 42.6 µM in experiment [8]; 54.6 µM in experiment [9]; 38.1 µM in experiment [10]; 40.5 µM in experiment [11]; greater than 100 µM in experiment [12]. Moreover, the TGI in [13] was greater than 100 µM; in [14], 46.9 µM; in [15], 66.4 µM; in experiment [16] it was 45.9 µM; in experiment [17], 85.9 µM; in [18], 40.7 µM.
Turning to `CN(C)c1ccc(/C=N\NC(=O)c2ccccc2Nc2ccccc2C(=O)N/N=C/c2ccc(N(C)C)cc2)cc1`, the TGI in [1], in experiment [2], in experiment [3], in experiment [4], in experiment [5] and in experiment [6] was greater than 100 µM in each case. Further, the TGI in experiment [7] is greater than 100 µM; in [8] it was greater than 100 µM; in [9] it was 95.9 µM; in experiment [10], greater than 100 µM; in experiment [11] it was greater than 100 µM; in [12] it was greater than 100 µM. The TGI in [13], in experiment [14], in [15], in experiment [16], in experiment [17] and in [18] was greater than 100 µM in each case.
For `CCOC(=O)C1=CN/C(=C(/C)C(=O)OC)SC1C(=O)OCC` (centres undefined), the TGI in experiment [1], in [2], in experiment [3], in experiment [4], in experiment [5] and in experiment [6] was greater than 100 µM each time. Also, the TGI in experiment [7], in [8], in experiment [9], in experiment [10], in experiment [11] and in [12] was greater than 100 µM each time. In addition, the TGI in [13] was greater than 31.6 µM; in experiment [14], greater than 100 µM; in experiment [15], greater than 100 µM; in [16], greater than 100 µM; in experiment [17] it was greater than 100 µM; in experiment [18], greater than 100 µM.
`C=C1C(=O)OC2/C=C(\CO)C3OC3C3OC3(C)CC(OC(=O)/C(=C/C)CO)C12` (centres undefined): the TGI in experiment [1], in experiment [2], in experiment [3], in [4], in experiment [5] and in experiment [6] was greater than 100 µM in each case. Further, the TGI in experiment [7], in [8], in experiment [9], in experiment [10], in experiment [11] and in experiment [12] was greater than 100 µM each time. In addition, the TGI is 65.4 µM in experiment [13]; greater than 100 µM in experiment [14]; greater than 100 µM in [15]; 77.4 µM in experiment [16]; greater than 100 µM in experiment [17]; greater than 100 µM in experiment [18].
Turning to `COc1ccc2cc(CNCCCCCCCCCCCCNCc3ccc4cc(OC)ccc4c3)ccc2c1`, the TGI was 34.3 µM in [1]; 28.7 µM in [2]; greater than 54.8 µM in [3]; 33 µM in [4]; 36.3 µM in experiment [5]; greater than 37.4 µM in experiment [6]. The TGI was determined as 32.5 µM in [7]; 50.9 µM in experiment [8]; 35.9 µM in experiment [9]; 29.9 µM in [10]; 38.4 µM in [11]; 31.9 µM in [12]. Moreover, the TGI in [13] is greater than 50 µM; in experiment [14] it was 36.6 µM; in experiment [15] it was 30.1 µM; in experiment [16], 47.3 µM; in [17], 35.8 µM; in [18] it was 41.3 µM.
Consider `CCN(CC)C(=C(C(Cl)=C(Cl)Cl)[N+](=O)[O-])N(CC)CC`, for which the TGI in experiment [1] was greater than 100 µM; in experiment [2], 67 µM; in experiment [3] it was greater than 100 µM; in experiment [4], greater than 100 µM; in [5] it was greater than 100 µM; in [6] it was greater than 100 µM. In addition, the TGI in experiment [7], in [8], in [9], in [10], in [11] and in [12] was greater than 100 µM each time. Besides, the TGI in experiment [13], in experiment [14], in experiment [15], in experiment [16], in experiment [17] and in experiment [18] was greater than 100 µM in each case.
Take `COC(=O)C1=C(O)C(C(=O)OC)[C@]2(O)[C@H](C(=O)OC)[C@H]1C[C@@H](c1ccc(F)cc1)[C@H]2C(=O)OC` (some centres undefined): the TGI in experiment [1] is 31 µM; in experiment [2] it was 26.5 µM; in experiment [3], greater than 100 µM; in experiment [4], 65.9 µM; in experiment [5], 41.9 µM; in experiment [6], 70.7 µM. In addition, the TGI in [7] is 49.9 µM; in experiment [8], 40.8 µM; in experiment [9], 27.5 µM; in experiment [10], 59.8 µM; in experiment [11], 33.7 µM; in [12] it was greater than 100 µM. Besides, the TGI is greater than 100 µM in [13]; 43.5 µM in experiment [14]; 32 µM in experiment [15]; greater than 100 µM in [16]; 29.1 µM in [17]; greater than 100 µM in [18].
